Data from publication PMC10244622, “Concerted suppressive effects of carisbamate, an anti-epileptic alkyl-carbamate drug, on voltage-gated Na^+ and hyperpolarization-activated cation currents” (Frontiers in Cellular Neuroscience, 2023).

Columns and labels:
[1] = test system: T1, HCN channel (hyperpolarization-activated cation current, Ih, in GH3 cells); experiment: whole-cell patch clamp; type: cell-based; conditions: Ih at end of 2-s step from -40 to -110 mV; Ca2+-free Tyrode with 1 μM TTX; pH 7.4; 20-25 °C; native GH3 cells
T1 construct: gene Hcn2; native whole-cell current in GH3 pituitary cells; homo- or mixed HCN2+HCN3; PDB 5V4S is only a docking model

[2] = test system: T2, voltage-gated Na^+ (NaV) channels (INa in GH3 cells); experiment: whole-cell patch clamp; type: cell-based; conditions: transient (peak) INa(T); 30-ms step from -100 to -10 mV; Ca2+-free Tyrode, 10 mM TEA, 0.5 mM CdCl2; pH 7.4; 20-25 °C; native GH3 cells
T2 construct: gene Scn1a; native whole-cell current in GH3 pituitary cells; hNaV1.7 only docked

NC(=O)OC[C@@H](O)c1ccccc1Cl [CRS, [(2S)-2-(2-chlorophenyl)-2-hydroxyethyl] carbamate]
IC50 [1]: 38 µM | IC50 [2]: 56.4 µM
